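Method: 48-hour compound exposure of cells in 96-well plates, five concentrations, linear interpolation of endpoints. GI50 is the concentration that inhibits growth by half. TGI is the concentration that stops growth completely.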
What was measured:
Test in all cases: DTP human tumour cell line panel, 48 h
MCF7 breast = test system: MCF7 breast
HL-60(TB) leukemia = test system: HL-60(TB) leukemia
NCI-H226 lung = test system: NCI-H226 lung
HCT-116 colon = test system: HCT-116 colon
786-0 renal = test system: 786-0 renal
SK-OV-3 ovarian = test system: SK-OV-3 ovarian
MOLT-4 leukemia = test system: MOLT-4 leukemia
HCC-2998 colon = test system: HCC-2998 colon
IGROV1 ovarian = test system: IGROV1 ovarian
SK-MEL-5 melanoma = test system: SK-MEL-5 melanoma

Cc1ccc(C(=O)N/N=C/c2cccc(Oc3ccccc3)c2)cn1 gave a GI50 (MCF7 breast) of 3.48 µM, a TGI (MCF7 breast) greater than 100 µM and a GI50 (HL-60(TB) leukemia) of 1.8 µM. The TGI (HL-60(TB) leukemia) was 5.77 µM, the GI50 (NCI-H226 lung) was greater than 64.5 µM and the TGI (NCI-H226 lung) was greater than 100 µM. For the same molecule, the GI50 (HCT-116 colon) was 4.69 µM, the TGI (HCT-116 colon) was greater than 100 µM and the GI50 (786-0 renal) was 29.1 µM. For the same molecule, the TGI (786-0 renal) was greater than 100 µM, the GI50 (SK-OV-3 ovarian) was 13 µM and the TGI (SK-OV-3 ovarian) was greater than 100 µM. It also gave a GI50 (MOLT-4 leukemia) of 3.83 µM, a TGI (MOLT-4 leukemia) of 34.5 µM and a GI50 (HCC-2998 colon) of 16.1 µM. It also gave a TGI (HCC-2998 colon) greater than 100 µM, a GI50 (IGROV1 ovarian) of 19 µM and a TGI (IGROV1 ovarian) greater than 100 µM. It also gave a GI50 (SK-MEL-5 melanoma) of 5.21 µM and a TGI (SK-MEL-5 melanoma) greater than 100 µM.

Cc1ccc(NS(=O)(=O)c2cc(C)ccc2C)cc1 showed a GI50 (MCF7 breast) of 3.59 µM, a TGI (MCF7 breast) of 83 µM and a GI50 (HL-60(TB) leukemia) of 3.65 µM. It also gave a TGI (HL-60(TB) leukemia) of 27 µM, a GI50 (NCI-H226 lung) of 15.3 µM and a TGI (NCI-H226 lung) of 70.4 µM. The GI50 (HCT-116 colon) was 3.55 µM, the TGI (HCT-116 colon) was 20.4 µM and the GI50 (786-0 renal) was 10.6 µM. It also gave a TGI (786-0 renal) of 31.4 µM, a GI50 (SK-OV-3 ovarian) of 3.68 µM and a TGI (SK-OV-3 ovarian) of 21.3 µM. It also gave a GI50 (MOLT-4 leukemia) of 5.43 µM, a TGI (MOLT-4 leukemia) greater than 100 µM and a GI50 (HCC-2998 colon) of 7 µM. It also gave a TGI (HCC-2998 colon) of 28 µM, a GI50 (IGROV1 ovarian) of 7.02 µM and a TGI (IGROV1 ovarian) greater than 100 µM. The GI50 (SK-MEL-5 melanoma) was 2.79 µM and the TGI (SK-MEL-5 melanoma) was 13.8 µM.

Work on O=C(Nc1cc(Cl)ccc1O)c1cccc(NC2=C(Cl)C(=O)N(Cc3ccccc3)C2=O)c1 yielded a GI50 (MCF7 breast) of 13.3 µM, a TGI (MCF7 breast) of 36.9 µM and a GI50 (HL-60(TB) leukemia) of 15.9 µM. For the same molecule, the TGI (HL-60(TB) leukemia) was 38.7 µM, the GI50 (NCI-H226 lung) was 17.4 µM and the TGI (NCI-H226 lung) was 36.6 µM. For the same molecule, the GI50 (HCT-116 colon) was 17.2 µM, the TGI (HCT-116 colon) was 31 µM and the GI50 (786-0 renal) was 22.7 µM. For the same molecule, the TGI (786-0 renal) was 50.9 µM, the GI50 (SK-OV-3 ovarian) was 69.1 µM and the TGI (SK-OV-3 ovarian) was greater than 100 µM. It also gave a GI50 (MOLT-4 leukemia) of 3.24 µM, a TGI (MOLT-4 leukemia) of 15.8 µM and a GI50 (HCC-2998 colon) of 17 µM. For the same molecule, the TGI (HCC-2998 colon) was 32.1 µM, the GI50 (IGROV1 ovarian) was 35.4 µM and the TGI (IGROV1 ovarian) was greater than 100 µM. It also gave a GI50 (SK-MEL-5 melanoma) of 17 µM and a TGI (SK-MEL-5 melanoma) of 31.5 µM.

Cc1c(Cl)cccc1NC(=O)c1sc2nc3c(cc2c1N)CCCCCC3 gave a GI50 (MCF7 breast) of 0.149 µM, a TGI (MCF7 breast) greater than 50 µM and a GI50 (HL-60(TB) leukemia) of 0.158 µM. For the same molecule, the TGI (HL-60(TB) leukemia) was 3.4 µM, the GI50 (NCI-H226 lung) was 1.14 µM and the TGI (NCI-H226 lung) was 25.1 µM. It also gave a GI50 (HCT-116 colon) of 0.195 µM, a TGI (HCT-116 colon) greater than 50 µM and a GI50 (786-0 renal) of 0.223 µM. The TGI (786-0 renal) was 14.7 µM, the GI50 (SK-OV-3 ovarian) was 0.279 µM and the TGI (SK-OV-3 ovarian) was 26.5 µM. For the same molecule, the GI50 (MOLT-4 leukemia) was 0.265 µM, the TGI (MOLT-4 leukemia) was greater than 50 µM and the GI50 (HCC-2998 colon) was 1.39 µM. It also gave a TGI (HCC-2998 colon) greater than 50 µM, a GI50 (IGROV1 ovarian) of 0.426 µM and a TGI (IGROV1 ovarian) greater than 50 µM. The GI50 (SK-MEL-5 melanoma) was 0.177 µM and the TGI (SK-MEL-5 melanoma) was 10.5 µM.

For c1cncc(CNc2ccccc2-c2nnc(Nc3ccc4c(c3)OCCO4)o2)c1, the GI50 (MCF7 breast) was 0.291 µM, the TGI (MCF7 breast) was greater than 100 µM and the GI50 (HL-60(TB) leukemia) was 0.103 µM. The TGI (HL-60(TB) leukemia) was 3.34 µM, the GI50 (NCI-H226 lung) was 0.153 µM and the TGI (NCI-H226 lung) was 0.81 µM. It also gave a GI50 (HCT-116 colon) of 0.071 µM, a TGI (HCT-116 colon) greater than 100 µM and a GI50 (786-0 renal) of 0.366 µM. It also gave a TGI (786-0 renal) greater than 100 µM, a GI50 (SK-OV-3 ovarian) of 0.0745 µM and a TGI (SK-OV-3 ovarian) of 1.79 µM. For the same molecule, the GI50 (MOLT-4 leukemia) was 0.435 µM, the TGI (MOLT-4 leukemia) was 15.5 µM and the GI50 (HCC-2998 colon) was 0.255 µM. The GI50 (IGROV1 ovarian) was 0.5 µM, the TGI (IGROV1 ovarian) was greater than 100 µM and the GI50 (SK-MEL-5 melanoma) was 0.0721 µM. The TGI (SK-MEL-5 melanoma) was 2.03 µM.

Molecule COc1cc2c(OC)c(c1)CCCC1=CC(=O)C=C(CCC2)C1=O has a TGI (MCF7 breast) greater than 100 µM, a TGI (HL-60(TB) leukemia) of 24.6 µM and a TGI (NCI-H226 lung) greater than 100 µM. The TGI (HCT-116 colon) was 38.1 µM, the TGI (786-0 renal) was greater than 55.1 µM and the TGI (SK-OV-3 ovarian) was greater than 100 µM. It also gave a TGI (MOLT-4 leukemia) of 15.7 µM, a TGI (HCC-2998 colon) greater than 100 µM and a TGI (IGROV1 ovarian) greater than 100 µM. The TGI (SK-MEL-5 melanoma) was greater than 100 µM.

In the case of CC1(C)N=C(N)N=C(N)N1c1cccc(CCCCc2ccc(S(=O)(=O)F)cc2Cl)c1, the GI50 (MCF7 breast) is reported as 0.577 µM, the TGI (MCF7 breast) is reported as 15.7 µM and the GI50 (HL-60(TB) leukemia) is reported as 7.02 µM. For the same molecule, the TGI (HL-60(TB) leukemia) was 55.8 µM, the GI50 (NCI-H226 lung) was 9.37 µM and the TGI (NCI-H226 lung) was 50.6 µM. It also gave a GI50 (HCT-116 colon) of 1.06 µM, a TGI (HCT-116 colon) greater than 37.7 µM and a GI50 (786-0 renal) of 3.28 µM. It also gave a TGI (786-0 renal) of 24.5 µM, a GI50 (SK-OV-3 ovarian) of 24.6 µM and a TGI (SK-OV-3 ovarian) greater than 100 µM. The GI50 (MOLT-4 leukemia) was 7.42 µM, the TGI (MOLT-4 leukemia) was greater than 65.3 µM and the GI50 (HCC-2998 colon) was 5.47 µM. It also gave a TGI (HCC-2998 colon) of 38.8 µM, a GI50 (IGROV1 ovarian) of 0.313 µM and a TGI (IGROV1 ovarian) greater than 38.5 µM. The GI50 (SK-MEL-5 melanoma) was 1.87 µM and the TGI (SK-MEL-5 melanoma) was 16.4 µM.

For COc1cccc(/C=C/C(=O)c2cc3c(N)c(C(=O)Nc4cccc(Cl)c4C)sc3nc2C)c1, the GI50 (MCF7 breast) was 0.473 µM, the TGI (MCF7 breast) was greater than 24.8 µM and the GI50 (HL-60(TB) leukemia) was 0.927 µM. It also gave a TGI (HL-60(TB) leukemia) of 2.84 µM, a GI50 (NCI-H226 lung) of 0.983 µM and a TGI (NCI-H226 lung) of 2.53 µM. For the same molecule, the GI50 (HCT-116 colon) was 0.605 µM, the TGI (HCT-116 colon) was 1.42 µM and the GI50 (786-0 renal) was 0.823 µM. The TGI (786-0 renal) was 1.83 µM, the GI50 (SK-OV-3 ovarian) was 2.2 µM and the TGI (SK-OV-3 ovarian) was greater than 50 µM. It also gave a GI50 (MOLT-4 leukemia) of 1.26 µM, a TGI (MOLT-4 leukemia) greater than 50 µM and a GI50 (HCC-2998 colon) of 0.971 µM. The TGI (HCC-2998 colon) was 1.83 µM, the GI50 (IGROV1 ovarian) was 0.832 µM and the TGI (IGROV1 ovarian) was 1.85 µM. For the same molecule, the GI50 (SK-MEL-5 melanoma) was 1 µM and the TGI (SK-MEL-5 melanoma) was 2.34 µM.

Cc1cc(S(=O)(=O)NC#N)c(S/C(=N\Nc2ccc([N+](=O)[O-])cc2)c2ccccc2)cc1Cl was tested, and the GI50 (MCF7 breast) was 14.7 µM, the TGI (MCF7 breast) was 28.3 µM and the GI50 (HL-60(TB) leukemia) was 21.6 µM. For the same molecule, the TGI (HL-60(TB) leukemia) was 83.1 µM, the GI50 (NCI-H226 lung) was 16.3 µM and the TGI (NCI-H226 lung) was 33.1 µM. The GI50 (HCT-116 colon) was 13.8 µM, the TGI (HCT-116 colon) was 30.6 µM and the GI50 (786-0 renal) was 33.8 µM. It also gave a TGI (786-0 renal) greater than 100 µM, a GI50 (SK-OV-3 ovarian) greater than 100 µM and a TGI (SK-OV-3 ovarian) greater than 100 µM. For the same molecule, the GI50 (MOLT-4 leukemia) was 4.43 µM, the TGI (MOLT-4 leukemia) was 81.2 µM and the GI50 (HCC-2998 colon) was 17.2 µM. For the same molecule, the TGI (HCC-2998 colon) was 30.9 µM, the GI50 (IGROV1 ovarian) was 17.9 µM and the TGI (IGROV1 ovarian) was 39.3 µM. The GI50 (SK-MEL-5 melanoma) was 19.3 µM and the TGI (SK-MEL-5 melanoma) was 35.7 µM.

C#CC[C@H](c1nc2cc(Cl)ccc2c(=O)n1Nc1ccccc1)N(CCCN)C(=O)c1cccc(Cl)c1F showed a GI50 (MCF7 breast) of 0.0337 µM, a TGI (MCF7 breast) of 1.36 µM and a GI50 (HL-60(TB) leukemia) of 0.13 µM. It also gave a TGI (HL-60(TB) leukemia) of 0.605 µM, a GI50 (NCI-H226 lung) of 1.63 µM and a TGI (NCI-H226 lung) of 4.56 µM. For the same molecule, the GI50 (HCT-116 colon) was 0.0403 µM, the TGI (HCT-116 colon) was 1.3 µM and the GI50 (786-0 renal) was 1.15 µM. For the same molecule, the TGI (786-0 renal) was 2.63 µM, the GI50 (SK-OV-3 ovarian) was 0.116 µM and the TGI (SK-OV-3 ovarian) was 1.59 µM. For the same molecule, the GI50 (MOLT-4 leukemia) was 0.264 µM, the TGI (MOLT-4 leukemia) was 2.8 µM and the GI50 (HCC-2998 colon) was 0.178 µM. The TGI (HCC-2998 colon) was 1.39 µM, the GI50 (IGROV1 ovarian) was 0.979 µM and the TGI (IGROV1 ovarian) was 5.8 µM. For the same molecule, the GI50 (SK-MEL-5 melanoma) was 0.727 µM and the TGI (SK-MEL-5 melanoma) was 2.14 µM.

Reference: PubChem BioAssay (NCI)
